Where a name gives a salt, the structure may show the parent alone.
Columns and labels:
Type in all cases: physicochemical
[1] = Moisture sorption/desorption studies (hygrostat, storage at different temperatures and relative humidity); design: water content (Table VI): unit not given here; conditions: for water content (Table VII): 11.2% RH, % on the weight of compound 1b
Protocol: The determination of the sorption isotherms was carried out in a hygrostat.
At suitable intervals, the sample was weighed by means of a sample balance. The atmosphere in the hygrostat and therefore around the sample of compound 1a (1b) and 2a (2b) was conditioned and kept by a saturated solutions of a suitable salt:
Na Cl saturated solution 75.3% RH/25° C. 74.8% RH/37° C.
KNO3 saturated solution 93.7% RH/25° C. 90.0% RH/37° C.
At the end of the experiment, after completing the hysteresis, that is the adsorption--desorption cycle of humidity, the compound was assayed for the title and degradation products by TLC and HPLC, the physical state by DSC and water content by TGA.

[2] = Milling studies (FRITSCH Pulverisette 14 Rotor Speed Mill)
Protocol: The milling process was performed by the FRITSCH Pulverisette 14 Rotor Speed Mill supplied with circular sieve stainless steel with trapezoidal 0.080 mm diameter openings. The samples were passed through the mill twice at 20.000 rpm motor speed. The sample is assayed for title and degradation products by TLC and HPLC, physical state by DSC, water content by TGA, particle size distribution by Mercury Instrusion Porosimetry. The mi 11ed compounds are formulated in capsules and tablets at very low dose level (0.5 mg) by direct mixing and direct compression manufacturing method, respectively.

[3] = Accelerated stability tests in tablets and capsules
Text: (§1) Drug stability in these final compositions may be measured in accelerated stability tests or in long term real time stability tests. In accelerated stability tests, the above pharmaceutical compositions are exposed at high temperatures at different degrees of relative humidity for a period of time. Such tests are considered to be indicative of the stability of the composition at normal conditions. In long term real time stability studies the final compositions are exposed to normal conditions of storage at ambient temperatures at different degrees of relative humidity.
(*)according to H. Leven Berger Pharm. Act. Helv. 50 (1975) 88-91 it is
equivalent to 2 years storage at room temperature. Tablets and capsules
are packaged in PVC/PVDC blister with aluminium foil.
(*)according to "Guidelines for stability studies for Human Drugs and
Biologics" (1987) (USA/FDA) it is equivalent to 2 years at room
temperature. Tablets and capsules are packaged in PVC/PVDC blister with […]

[4] = Long-term real time stability tests in tablets and capsules
Text: as §1
Tablets and capsules are packaged in PVC/PVDC blister with aluminium foil

[5] = Water loss on desiccation under vacuum; conditions: between room temperature and 60° C. under vacuum, most preferably 40° C., 0.1 mm Hg, 24 hours; in words
Protocol: Compounds 2a and 2b may be prepared by dissolving the compounds 1a and 1b, as free base, in a hot aqueous solvent, preferably a hot aqueous alkanol, by adding the required amount of gaseous hydrogen chloride, filtering the resulting solution and letting it cool to room temperature. In a preferred embodiment of the process according to the invention, compound 2a is prepared by using, as an hot aqueous alkanol, hot 85% aqueous ethanol. The crystals of compound 2a may be collected by vacuum filtration and are washed with a small amount of aqueous ethanol. In a preferred embodiment of the process according to the invention, compound 2b is prepared by using, as an hot aqueous alkanol, hot 95% aqueous isopropanol. The crystals of compound 2b may be collected by vacuum filtration and are washed with a small amount of aqueous isopropanol. […] Water content may be measured by usual techniques such as the Karl Fischer test. Alternatively, compounds 2a and 2b may be conveniently prepared by dissolving the anhydrous form of compounds 1a and 1b, as hydrochloride, in hot aqueous ethanol, preferably 85% ethanol (respectively in hot aqueous isopropanol, preferably 95% isopropanol) and allowing to cool the solution at room temperature; crystals of compound 2 a (respectively 2b), separated from the cooled solution, are collected by vacuum filtration and manipulated as previously described. […]

## CCn1c(=O)n(C(=O)N[C@H]2C[C@H]3CC[C@@H](C2)N3C)c2ccccc21 [Compound 2b, Endo-3-ethyl-2,3-dihydro-N-(8-methyl-8-azabicyclo-[3.2.1]oct-3-yl)-2-oxo-1H-benzimidazole-1-carboxamide, hydrochloride monohydrate]
[1]
  stability in condition of storage: stable
[1]; 11 RH, 37° C., in words
  water content in conditions of extreme dryness: not affected
[1]; 37° C., 1 h
  water content (Table VII): 5.00%
[1]; 37° C., 2 h
  water content (Table VII): 4.85%
[1]; 37° C., 4 h
  water content (Table VII): 4.80%
[1]; 37° C., 6 h
  water content (Table VII): 4.70%
[1]; 37° C., 6 days
  water content (Table VII): 4.70%
[1]; 37° C., time 0
  water content (Table VII): 5.02%
[1]; 37° C., 49.2% RH, 2 h, hydrochloride monohydrate
  water content (Table VI): 5.03
[1]; 37° C., 49.2% RH, 4 h, hydrochloride monohydrate
  water content (Table VI): 5.04
[1]; 37° C., 49.2% RH, 6 h, hydrochloride monohydrate
  water content (Table VI): 5.00
[1]; 37° C., 49.2% RH, 1 d, hydrochloride monohydrate
  water content (Table VI): 5.00
[1]; 37° C., 49.2% RH, 4 d, hydrochloride monohydrate
  water content (Table VI): 5.04
[1]; 37° C., 49.2% RH, 10 d, hydrochloride monohydrate
  water content (Table VI): 4.95
[1]; 37° C., 49.2% RH, 30 d, hydrochloride monohydrate
  water content (Table VI): 5.02
[1]; 37° C., 49.2% RH, time 0, hydrochloride monohydrate
  water content (Table VI): 5.00
[1]; 37° C., 74.8% RH, 2 h, hydrochloride monohydrate
  water content (Table VI): 5.05
[1]; 37° C., 74.8% RH, 4 h, hydrochloride monohydrate
  water content (Table VI): 5.05
[1]; 37° C., 74.8% RH, 6 h, hydrochloride monohydrate
  water content (Table VI): 5.07
[1]; 37° C., 74.8% RH, 1 d, hydrochloride monohydrate
  water content (Table VI): 5.07
[1]; 37° C., 74.8% RH, 4 d, hydrochloride monohydrate
  water content (Table VI): 5.07
[1]; 37° C., 74.8% RH, 10 d, hydrochloride monohydrate
  water content (Table VI): 4.97
[1]; 37° C., 74.8% RH, 30 d, hydrochloride monohydrate
  water content (Table VI): 5.00
[1]; 37° C., 74.8% RH, time 0, hydrochloride monohydrate
  water content (Table VI): 5.00
[1]; different temperatures and relative humidity, in words, hydrochloride monohydrate
  moisture absorption: do not absorb moisture
[2]; Mercury Porosimetry Analysis, in words
  particle size reduction (milling efficiency): same rank order
[2]; after milling, hydrochloride monohydrate
  humidity content: 4.8%
[3]
  stability in tablets and capsules: better stability
[4]
  stability in tablets and capsules: better stability
[5]
  loss of water content on desiccation: without any appreciable loss of water content

Source: patent publication US5468758A, “Crystalline forms of endo-2,3-dihydro-N-(8-methyl)-8-azabicyclo[3.2.1]oct-3-yl)-2-oxo-1H-benz imidazole-1-carboxamides” (Boehringer Ingelheim Italia S.p.A., priority 1992, dated 1995)
